Results reported in PubChem BioAssay AID588363 (Broad Institute, 2011).
Activity calls are given as the source filed them.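 The calls were made as follows: active = compounds lowering polarization with half-effect concentration at most ten times their top valid dose; inconclusive = flat fit with 30 to 70 percent drop, or poor fit; inactive = the rest.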

Target: KSHV LANA C-terminal domain (residues 932-1162), DNA binding
Experiment: KSHV LANA C-terminal domain DNA-binding blockers – biochemical, fluorescence polarization, MBP fusion, dry powder, dose response (AID 588363)
Conditions: MBP-C-LANA/LBS DNA binding; for activity change, negative = inhibition: at 35 µM (top of the series)

| Structure (SMILES) | AC50 [µM] | activity change, negative = inhibition |
| --- | --- | --- |
| O=C(O)c1cc(N2N=C(C(F)(F)F)/C(=C/C=C/c3ccco3)C2=O)ccc1Cl | 6.05 |  |
| Nc1c(C(=O)Nc2ccccc2F)sc2nc(Cc3ccccc3)cc(C(F)(F)F)c12 | 23.1 |  |
| CN(C)S(=O)(=O)c1cc(C(=O)NC2CCSc3ccccc32)ccc1Cl (configuration not stated) |  | inactive |
| CC(=O)c1ccc2c(c1)C1C=CCC1C(C(=O)O)N2 (configuration not stated) | 4.46 |  |
| Clc1ccc(-c2nnc3sc(-c4ccc(Br)o4)nn23)cc1 |  | inactive |
| CCC(=O)Oc1ccc2c(c1)O/C(=C\c1ccco1)C2=O | 16.8 |  |
| CSc1ccc(/C=N/Nc2cccc(C(=O)O)c2)cc1 | 6.54 |  |
| O=C(O)CCNc1ccc(NCCC(=O)O)c2c1C(=O)c1ccccc1C2=O | 24.4 |  |
| O=C1/C(=C/c2ccco2)Oc2c1ccc(O)c2CN1CCCCC1 | 8.54 |  |
| CC1=NN(c2cccc(C(=O)O)c2)C(=O)/C1=C\C=C\c1ccco1 | 31.2 |  |
| CC1(C)[C@@H](O[C@H]2O[C@H](C(=O)O)[C@@H](O)[C@H](O)[C@H]2O[C@@H]2O[C@H](C(=O)O)[C@@H](O)[C@H](O)[C@H]2O)CC[C@]2(C)[C@H]3C(=O)C=C4[C@@H]5C[C@@](C)(C(=O)O)CC[C@]5(C)CC[C@@]4(C)[C@]3(C)CC[C@@H]12 |  | inactive |
| O=C(O)C1Nc2ccc(Br)cc2C2C=CCC12 (configuration not stated) | 3.33 |  |
| O=C1CCCC(O)=C1N=Nc1ccc(C(=O)O)cc1 | 20.6 |  |
| O=C(O)C1Nc2c(O)cc(Cl)c([N+](=O)[O-])c2C2C=CCC12 (configuration not stated) | 13.2 |  |
| COC(=O)c1ccccc1NC(=O)CCS(=O)(=O)c1ccc(Br)cc1 | 16.1 |  |
| O=c1c(O)cccc2cc(O)c(O)c(O)c12 | 5.21 |  |
| Nc1c(/C=C2\C=CC(=O)C(O)=C2)c(=O)nc2sc(CC(=O)N3CCCCC3)nn12 |  | inactive |
